This test has as its target TRPV1 (Homo sapiens, UniProt Q8NER1). Kind of test: Fluo-4 calcium imaging in HEK293 cells stably expressing human TRPV1; no effect in control T-REx HEK293 cells; blocked by AMG9810. In kind it is cell-based.

For one molecule, EC50 results are on record in paper PMC7201532, “The role of Piper chaba Hunt. and its pure compound, piperine, on TRPV1 activation and adjuvant effect” (BMC Complementary Medicine and Therapies, 2020).

Sequence of TRPV1 (Q8NER1 whole entry): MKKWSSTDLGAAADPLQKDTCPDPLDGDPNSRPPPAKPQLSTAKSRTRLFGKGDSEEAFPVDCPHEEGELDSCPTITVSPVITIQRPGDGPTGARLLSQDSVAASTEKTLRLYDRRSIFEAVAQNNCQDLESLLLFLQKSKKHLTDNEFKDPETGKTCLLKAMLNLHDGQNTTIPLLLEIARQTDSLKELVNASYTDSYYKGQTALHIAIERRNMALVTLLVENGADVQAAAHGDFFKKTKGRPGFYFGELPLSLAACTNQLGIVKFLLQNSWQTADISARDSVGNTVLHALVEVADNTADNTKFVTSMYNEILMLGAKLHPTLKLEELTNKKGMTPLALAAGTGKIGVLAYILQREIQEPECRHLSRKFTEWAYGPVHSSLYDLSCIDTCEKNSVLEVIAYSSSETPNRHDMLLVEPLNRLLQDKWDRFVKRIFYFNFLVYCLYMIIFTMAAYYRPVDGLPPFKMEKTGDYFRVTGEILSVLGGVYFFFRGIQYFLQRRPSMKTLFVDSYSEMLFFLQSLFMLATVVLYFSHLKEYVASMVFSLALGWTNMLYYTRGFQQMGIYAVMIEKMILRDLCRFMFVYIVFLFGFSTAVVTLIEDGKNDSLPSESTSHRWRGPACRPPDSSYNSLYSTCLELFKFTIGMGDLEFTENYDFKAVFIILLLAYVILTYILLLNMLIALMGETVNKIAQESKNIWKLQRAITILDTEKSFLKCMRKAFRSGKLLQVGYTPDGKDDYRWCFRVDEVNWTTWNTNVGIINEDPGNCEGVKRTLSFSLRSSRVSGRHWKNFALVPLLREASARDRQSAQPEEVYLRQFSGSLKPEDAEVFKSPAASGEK

As to `O=C(/C=C/C=C/c1ccc2c(c1)OCO2)N1CCCCC1` [Piperine], the EC50 worked out at 1080 nM.

Usually EC50 stands for the concentration giving half of the maximal effect.
